Some test systems named below: MALME-3M melanoma; 786-0 renal; HCC-2998 colon; HOP-92 NSCLC; UO-31 renal; NCI-H522 lung; HCT-15 colon; M14 melanoma; SF-539 CNS; OVCAR-5 ovarian.
Holding throughout (experiment): NCI tumour cell line growth inhibition, 48 h

The structures appear in SMILES notation.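 Interpolation was linear, between the two tested concentrations surrounding the appropriate level; five concentrations were tested over 48 hours in 96-well plates. Abbreviation: GI50, concentration required for 50% inhibition of growth. TGI: concentration producing complete growth inhibition.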

Regarding `Cc1nn(-c2ccccc2)c2nc3c(nc12)C1=NCCN1C(c1ccc(Cl)cc1)N3` (stereo not given), the GI50 in the test on MALME-3M melanoma is 2.18 µM; in the test on 786-0 renal, 2.99 µM; in the test on HCC-2998 colon, 1.92 µM; in the test with HOP-92 NSCLC it was 2 µM; in the test on UO-31 renal it was 7.84 µM; with NCI-H522 lung it was 2.83 µM. In addition, the GI50 in the test on HCT-15 colon was 2.89 µM; with M14 melanoma, 1.98 µM; with SF-539 CNS, 1.94 µM; in the test on OVCAR-5 ovarian, 11.4 µM. The TGI with MALME-3M melanoma was found to be 4.12 µM; in the test with 786-0 renal, 8.9 µM; in the test with HCC-2998 colon, 3.49 µM; with HOP-92 NSCLC, 9.69 µM; in the test on UO-31 renal it was 21.5 µM; in the test on NCI-H522 lung, 7.14 µM. Besides, the TGI was 9.75 µM in the test with HCT-15 colon, 3.86 µM in the test with M14 melanoma, 4.23 µM in the test on SF-539 CNS and 24.3 µM with OVCAR-5 ovarian.
With `O=NN/C(=C1\Nc2ccc([N+](=O)[O-])cc2NC1=O)C(O)c1ccc([N+](=O)[O-])cc1` (stereo not given), the TGI with MALME-3M melanoma, in the test on 786-0 renal, with HCC-2998 colon, in the test on HOP-92 NSCLC, with UO-31 renal and in the test on NCI-H522 lung was > 100 µM throughout. For the same compound, the TGI in the test with HCT-15 colon, with M14 melanoma, in the test on SF-539 CNS and in the test with OVCAR-5 ovarian was > 100 µM in each case.
With `COc1ccc(C(=O)CC(=O)C(=O)Nc2ccc(C)c(C)c2)cc1`, the TGI with MALME-3M melanoma, in the test with 786-0 renal, with HCC-2998 colon, with HOP-92 NSCLC, in the test with UO-31 renal and in the test on NCI-H522 lung was > 100 µM in each case. Moreover, the TGI with HCT-15 colon is > 57.1 µM; in the test with M14 melanoma, > 100 µM; with SF-539 CNS, > 100 µM; with OVCAR-5 ovarian, > 93.7 µM.
On to `CCC(c1ccc2cc(O)ccc2c1)C(C)(C)C(=O)O` (stereo not given), for which the TGI with MALME-3M melanoma, in the test with 786-0 renal, in the test on HCC-2998 colon, in the test with HOP-92 NSCLC, with UO-31 renal and with NCI-H522 lung was > 100 µM throughout. The TGI in the test on HCT-15 colon, in the test on M14 melanoma, in the test on SF-539 CNS and in the test with OVCAR-5 ovarian was > 100 µM each time.
Consider `C=C(C)[C@@H]1CC[C@]2(C(=O)O)CC[C@]3(C)[C@H](CC[C@@H]4[C@@]5(C)C/C(=C/c6ccc(OC)cc6)C(=O)C(C)(C)[C@@H]5CC[C@]43C)[C@@H]12`, for which the GI50 in the test on MALME-3M melanoma was 1.84 µM; in the test with 786-0 renal, 2.83 µM; with HCC-2998 colon, 2.1 µM; in the test with HOP-92 NSCLC, 0.738 µM; in the test with UO-31 renal, 1.45 µM; with NCI-H522 lung it was 1.97 µM. For the same compound, the GI50 is 1.79 µM with HCT-15 colon, 1.67 µM in the test with M14 melanoma, 1.94 µM in the test with SF-539 CNS and 3.2 µM in the test with OVCAR-5 ovarian. In addition, the TGI in the test on MALME-3M melanoma was 4.29 µM; in the test on 786-0 renal it was 12.1 µM; in the test with HCC-2998 colon, 5.73 µM; with HOP-92 NSCLC it was 3.36 µM; in the test on UO-31 renal it was 4.42 µM; with NCI-H522 lung, 6.65 µM. In addition, the TGI was 4.4 µM in the test on HCT-15 colon, 3.9 µM with M14 melanoma, 4.16 µM in the test on SF-539 CNS and 12 µM with OVCAR-5 ovarian.
With `COc1cc(C2CC(c3ccccc3)=NN2C(C)=O)cc(OC)c1OC` (stereo not given), the GI50 in the test on MALME-3M melanoma is 13 µM; with 786-0 renal, 5.93 µM; with HCC-2998 colon, 6.4 µM; with HOP-92 NSCLC, 32.9 µM; with UO-31 renal, 7.09 µM; in the test on NCI-H522 lung, 5.53 µM. The GI50 is 2.48 µM with HCT-15 colon, 2.47 µM in the test on M14 melanoma, 3.06 µM in the test with SF-539 CNS and 70.7 µM in the test on OVCAR-5 ovarian. Besides, the TGI is > 100 µM in the test on MALME-3M melanoma; > 100 µM with 786-0 renal; > 74 µM in the test on HCC-2998 colon; > 100 µM in the test with HOP-92 NSCLC; > 100 µM in the test on UO-31 renal; > 100 µM in the test on NCI-H522 lung. The TGI is > 100 µM in the test with HCT-15 colon, > 34.2 µM in the test with M14 melanoma, 17.8 µM with SF-539 CNS and > 100 µM in the test with OVCAR-5 ovarian.
With `CC(C(=O)O)/C(=C\c1ccc2c(c1)OCO2)C(=O)O` (stereo not given), the TGI in the test on MALME-3M melanoma, in the test on 786-0 renal, with HCC-2998 colon, with HOP-92 NSCLC, in the test with UO-31 renal and in the test with NCI-H522 lung was > 100 µM throughout. Moreover, the TGI was > 100 µM in the test with HCT-15 colon, > 100 µM in the test with M14 melanoma, > 100 µM with SF-539 CNS and > 61.5 µM with OVCAR-5 ovarian.
Turning to `CC(=O)OC1CC2C(C)(C)C(=O)C=C[C@]2(C)C2CCC3(C)C(c4ccoc4)[C@@H](O)[C@H]4O[C@]43[C@]12C` (stereo not given in full), the TGI was 51.7 µM in the test on MALME-3M melanoma; 31.4 µM with 786-0 renal; 29.6 µM in the test with HCC-2998 colon; 39.9 µM with HOP-92 NSCLC; 31.8 µM in the test on UO-31 renal; 28 µM in the test on NCI-H522 lung. Also, the TGI was found to be 31.2 µM in the test with HCT-15 colon, 37.7 µM in the test with M14 melanoma, 34.2 µM in the test with SF-539 CNS and 50 µM in the test with OVCAR-5 ovarian.
Regarding `COc1ccc2c(c1)/C(=C\c1c(Cl)n(C)c3ccccc13)C(=O)N2`, the GI50 in the test with MALME-3M melanoma was 4.59 µM; in the test with 786-0 renal it was 2.18 µM; in the test with HCC-2998 colon, 0.306 µM; in the test with HOP-92 NSCLC, 5.5 µM; in the test with UO-31 renal, 3.71 µM; with NCI-H522 lung, 0.726 µM. Further, the GI50 in the test on HCT-15 colon was 0.456 µM; in the test with M14 melanoma, 1.61 µM; in the test on SF-539 CNS, 0.672 µM; with OVCAR-5 ovarian, 3.94 µM. For the same compound, the TGI was 16.7 µM in the test with MALME-3M melanoma; 12.5 µM in the test on 786-0 renal; 1.08 µM with HCC-2998 colon; 29.4 µM with HOP-92 NSCLC; 20.6 µM in the test with UO-31 renal; 7.14 µM in the test on NCI-H522 lung. Moreover, the TGI with HCT-15 colon was found to be 8.17 µM; in the test on M14 melanoma, 23.8 µM; in the test with SF-539 CNS, 3.33 µM; with OVCAR-5 ovarian, 15.3 µM.
